Three molecules from US12275731B2, “Azaindole inhibitors of wild-type and mutant forms of LRRK2” (DANA-FARBER CANCER INSTITUTE, INC., priority 2018, dated 2025) can be followed below.

Common to all, as to test: KinomeScan profiling
Common to all, as to type: binding

Test [1] has as its target ERK5 (Homo sapiens, UniProt Q13164). The conditions noted are these: ERK5, 1 μM; read-out: % control. Put shortly:
(§1)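 Percent-of-control values derive from RLU, calculated as (test − positive)/(negative − positive) × 100, where DMSO defines 100% and a positive control compound defines 0%. Each compound was tested at 1 μM in the 468-kinase panel; sub-35% readings indicate activity.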

Test [2] deals with T1, JAK3(JH1domain-catalytic) (Homo sapiens, UniProt P52333).
T1 construct: JAK3(JH1domain-catalytic); purchased KinomeScan®
The note with it: read-out: % control. Put shortly:
as §1

For test [3], the target named is T2, IRAK4 (Homo sapiens, UniProt Q9NWZ3).
T2 construct: purchased KinomeScan®
T2 sequence (Q9NWZ3 1-460): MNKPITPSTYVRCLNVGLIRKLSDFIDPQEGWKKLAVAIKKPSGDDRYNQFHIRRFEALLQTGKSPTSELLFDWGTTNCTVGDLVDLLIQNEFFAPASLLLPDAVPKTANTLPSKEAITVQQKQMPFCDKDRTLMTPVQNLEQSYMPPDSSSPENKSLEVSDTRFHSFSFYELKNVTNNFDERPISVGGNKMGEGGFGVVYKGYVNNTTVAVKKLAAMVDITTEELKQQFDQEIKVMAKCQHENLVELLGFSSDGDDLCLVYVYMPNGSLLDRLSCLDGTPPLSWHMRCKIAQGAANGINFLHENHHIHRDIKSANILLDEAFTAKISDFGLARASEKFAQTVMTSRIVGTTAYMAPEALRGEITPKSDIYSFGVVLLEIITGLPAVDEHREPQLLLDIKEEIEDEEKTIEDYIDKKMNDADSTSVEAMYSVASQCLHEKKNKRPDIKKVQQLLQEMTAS
The conditions noted are these: IRAK4, 1 μM; read-out: % control. Put shortly:
as §1

The target in test [4] is T3, RPS6KA5(Kin.Dom.2-C-terminal) (Homo sapiens, UniProt O75582).
T3 construct: RPS6KA5(Kin.Dom.2-C-terminal)
The note with it: read-out: % control. The gist of the method:
as §1

Test [5] deals with T4, MEK3 (Homo sapiens, UniProt P46734).
T4 sequence (P46734 1-347): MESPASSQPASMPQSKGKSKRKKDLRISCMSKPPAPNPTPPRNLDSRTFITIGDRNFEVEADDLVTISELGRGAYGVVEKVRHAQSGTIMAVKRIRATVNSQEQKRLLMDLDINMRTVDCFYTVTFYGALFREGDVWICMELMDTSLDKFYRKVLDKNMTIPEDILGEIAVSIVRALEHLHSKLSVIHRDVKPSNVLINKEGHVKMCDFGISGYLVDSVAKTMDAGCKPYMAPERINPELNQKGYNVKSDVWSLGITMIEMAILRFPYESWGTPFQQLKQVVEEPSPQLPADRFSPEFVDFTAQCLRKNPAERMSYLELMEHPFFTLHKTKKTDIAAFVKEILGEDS
The note with it: MEK3, 1 μM; read-out: % control. Put shortly: as §1

Test [6] concerns the target T5, PIP5K2C (Homo sapiens, UniProt Q8TBX8).
T5 construct: purchased KinomeScan® (panel service)
T5 sequence (Q8TBX8 1-421): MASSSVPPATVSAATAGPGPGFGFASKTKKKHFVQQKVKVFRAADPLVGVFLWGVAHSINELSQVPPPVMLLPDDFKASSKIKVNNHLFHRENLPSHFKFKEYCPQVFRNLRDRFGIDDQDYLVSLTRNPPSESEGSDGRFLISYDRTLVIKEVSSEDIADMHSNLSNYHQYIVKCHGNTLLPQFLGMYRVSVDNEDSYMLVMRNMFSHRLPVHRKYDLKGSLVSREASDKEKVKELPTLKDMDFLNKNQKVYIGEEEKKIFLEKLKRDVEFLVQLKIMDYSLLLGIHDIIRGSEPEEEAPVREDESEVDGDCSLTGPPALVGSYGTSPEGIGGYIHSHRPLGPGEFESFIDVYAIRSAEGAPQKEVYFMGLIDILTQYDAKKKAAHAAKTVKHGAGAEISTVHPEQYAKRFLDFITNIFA
The note with it: read-out: % control. The gist of the method:
as §1

For test [7], the target named is T6, ABL1(F317I)-nonphosphorylated (Homo sapiens, UniProt P00519, F317I).
T6 construct: purchased KinomeScan®
The conditions noted are these: read-out: % control. The gist of the method:
as §1

For test [8], the target named is CAMKK2 (Homo sapiens, UniProt Q96RR4). The note with it: CAMKK2, 1 μM; read-out: % control. Put shortly:
as §1

Test [9] has as its target T7, MARK4 (Homo sapiens, UniProt Q96L34).
T7 sequence (Q96L34 1-752): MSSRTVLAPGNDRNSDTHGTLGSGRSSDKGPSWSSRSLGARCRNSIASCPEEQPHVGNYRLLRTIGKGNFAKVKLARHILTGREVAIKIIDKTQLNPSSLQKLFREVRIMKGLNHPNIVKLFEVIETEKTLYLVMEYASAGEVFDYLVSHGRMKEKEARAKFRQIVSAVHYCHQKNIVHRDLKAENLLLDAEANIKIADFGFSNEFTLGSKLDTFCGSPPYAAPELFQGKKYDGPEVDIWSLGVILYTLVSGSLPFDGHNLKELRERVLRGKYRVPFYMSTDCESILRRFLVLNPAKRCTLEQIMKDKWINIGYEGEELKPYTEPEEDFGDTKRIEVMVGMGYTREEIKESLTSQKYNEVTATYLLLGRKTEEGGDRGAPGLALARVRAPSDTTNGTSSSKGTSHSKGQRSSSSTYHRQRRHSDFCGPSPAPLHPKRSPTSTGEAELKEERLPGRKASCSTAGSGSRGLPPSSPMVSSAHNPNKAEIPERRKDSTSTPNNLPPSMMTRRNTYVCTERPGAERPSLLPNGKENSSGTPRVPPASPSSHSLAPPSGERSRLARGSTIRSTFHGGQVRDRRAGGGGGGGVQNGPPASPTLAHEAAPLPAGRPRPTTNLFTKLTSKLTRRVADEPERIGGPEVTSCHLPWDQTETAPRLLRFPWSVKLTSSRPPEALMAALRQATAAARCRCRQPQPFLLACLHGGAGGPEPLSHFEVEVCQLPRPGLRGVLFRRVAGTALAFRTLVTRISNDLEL
The note with it: MARK4, 1 μM; read-out: % control. Put shortly: as §1

Chain of CAMKK2 (Q96RR4 whole entry): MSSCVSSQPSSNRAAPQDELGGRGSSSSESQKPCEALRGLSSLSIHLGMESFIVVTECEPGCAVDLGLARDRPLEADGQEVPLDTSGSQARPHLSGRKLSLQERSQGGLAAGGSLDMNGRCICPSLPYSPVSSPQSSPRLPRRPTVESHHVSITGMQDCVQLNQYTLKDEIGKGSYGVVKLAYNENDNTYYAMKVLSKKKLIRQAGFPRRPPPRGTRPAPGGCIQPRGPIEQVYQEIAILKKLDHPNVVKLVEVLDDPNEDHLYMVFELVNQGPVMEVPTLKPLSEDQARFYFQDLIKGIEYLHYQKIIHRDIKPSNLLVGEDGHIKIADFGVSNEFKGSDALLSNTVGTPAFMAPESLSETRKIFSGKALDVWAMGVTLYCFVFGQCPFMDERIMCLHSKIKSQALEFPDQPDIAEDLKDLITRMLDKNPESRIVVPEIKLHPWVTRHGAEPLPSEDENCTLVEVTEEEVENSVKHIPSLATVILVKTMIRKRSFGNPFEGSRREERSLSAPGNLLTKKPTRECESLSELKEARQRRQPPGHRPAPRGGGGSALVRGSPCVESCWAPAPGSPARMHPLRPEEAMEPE
Chain of ERK5 (Q13164 whole entry): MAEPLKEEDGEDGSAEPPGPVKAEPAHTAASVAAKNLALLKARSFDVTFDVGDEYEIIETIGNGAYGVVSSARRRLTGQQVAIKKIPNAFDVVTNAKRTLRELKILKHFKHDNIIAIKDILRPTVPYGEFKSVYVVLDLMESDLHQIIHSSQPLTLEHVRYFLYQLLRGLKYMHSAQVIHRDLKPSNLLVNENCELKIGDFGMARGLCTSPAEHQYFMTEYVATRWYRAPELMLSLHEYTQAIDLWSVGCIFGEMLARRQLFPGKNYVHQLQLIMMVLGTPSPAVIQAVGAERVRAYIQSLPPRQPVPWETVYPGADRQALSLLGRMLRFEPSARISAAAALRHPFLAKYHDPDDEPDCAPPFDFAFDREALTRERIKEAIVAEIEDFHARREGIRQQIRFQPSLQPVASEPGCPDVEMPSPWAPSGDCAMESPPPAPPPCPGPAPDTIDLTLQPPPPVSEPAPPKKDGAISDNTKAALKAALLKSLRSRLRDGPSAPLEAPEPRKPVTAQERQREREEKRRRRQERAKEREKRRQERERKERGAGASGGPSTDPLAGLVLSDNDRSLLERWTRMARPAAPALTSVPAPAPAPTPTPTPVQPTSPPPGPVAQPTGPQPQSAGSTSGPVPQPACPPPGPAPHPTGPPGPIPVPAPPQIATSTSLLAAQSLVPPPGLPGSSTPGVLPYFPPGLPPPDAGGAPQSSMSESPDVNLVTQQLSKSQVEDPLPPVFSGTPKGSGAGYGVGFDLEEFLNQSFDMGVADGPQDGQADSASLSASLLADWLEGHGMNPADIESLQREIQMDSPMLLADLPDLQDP
T3 sequence (O75582 426-687 limits assumed): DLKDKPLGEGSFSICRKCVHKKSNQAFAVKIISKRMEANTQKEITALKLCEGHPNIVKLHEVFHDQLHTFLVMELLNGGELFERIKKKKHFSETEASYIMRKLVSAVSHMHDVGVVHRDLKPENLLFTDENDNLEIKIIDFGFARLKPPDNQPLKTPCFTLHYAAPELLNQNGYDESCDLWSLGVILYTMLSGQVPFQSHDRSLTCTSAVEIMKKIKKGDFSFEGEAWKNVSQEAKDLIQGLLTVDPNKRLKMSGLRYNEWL
T6 sequence (P00519 whole entry F317I): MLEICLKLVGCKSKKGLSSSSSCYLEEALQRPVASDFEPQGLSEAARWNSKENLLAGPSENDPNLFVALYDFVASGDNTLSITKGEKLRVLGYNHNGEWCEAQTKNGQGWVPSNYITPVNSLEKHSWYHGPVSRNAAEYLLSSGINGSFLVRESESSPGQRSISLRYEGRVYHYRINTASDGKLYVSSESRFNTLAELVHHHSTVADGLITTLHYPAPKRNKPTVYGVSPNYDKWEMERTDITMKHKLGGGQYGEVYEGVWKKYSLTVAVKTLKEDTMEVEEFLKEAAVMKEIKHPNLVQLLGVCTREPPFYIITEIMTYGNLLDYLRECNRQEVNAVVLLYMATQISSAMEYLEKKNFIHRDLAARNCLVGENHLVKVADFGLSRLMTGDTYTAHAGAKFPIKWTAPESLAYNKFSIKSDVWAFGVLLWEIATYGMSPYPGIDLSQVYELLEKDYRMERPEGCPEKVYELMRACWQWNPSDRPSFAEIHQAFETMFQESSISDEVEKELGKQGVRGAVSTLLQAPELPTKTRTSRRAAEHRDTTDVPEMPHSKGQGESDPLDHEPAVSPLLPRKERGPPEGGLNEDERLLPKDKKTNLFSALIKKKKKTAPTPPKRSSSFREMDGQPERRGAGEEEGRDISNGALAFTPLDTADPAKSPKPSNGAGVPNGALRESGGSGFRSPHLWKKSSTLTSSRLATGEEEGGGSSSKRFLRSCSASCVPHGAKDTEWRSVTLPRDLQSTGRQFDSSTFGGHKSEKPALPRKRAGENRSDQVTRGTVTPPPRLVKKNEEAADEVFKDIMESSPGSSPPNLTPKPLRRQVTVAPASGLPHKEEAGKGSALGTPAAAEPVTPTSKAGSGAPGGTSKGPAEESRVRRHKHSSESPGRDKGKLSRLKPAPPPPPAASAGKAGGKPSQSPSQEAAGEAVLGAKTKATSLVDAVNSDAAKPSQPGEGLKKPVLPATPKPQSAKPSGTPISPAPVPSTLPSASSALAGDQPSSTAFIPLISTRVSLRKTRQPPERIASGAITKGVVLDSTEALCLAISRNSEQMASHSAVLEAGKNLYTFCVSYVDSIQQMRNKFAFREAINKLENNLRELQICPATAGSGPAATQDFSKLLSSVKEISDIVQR
T1 sequence (P52333 822-1111 limits assumed): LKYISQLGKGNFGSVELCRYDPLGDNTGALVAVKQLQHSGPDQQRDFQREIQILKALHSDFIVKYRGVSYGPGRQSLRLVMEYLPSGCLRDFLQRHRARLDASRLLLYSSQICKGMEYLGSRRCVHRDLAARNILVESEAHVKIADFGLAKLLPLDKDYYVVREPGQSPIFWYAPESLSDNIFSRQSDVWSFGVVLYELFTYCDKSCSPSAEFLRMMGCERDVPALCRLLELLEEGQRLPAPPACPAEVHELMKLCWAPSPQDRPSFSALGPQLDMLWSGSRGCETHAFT

As to `CNc1c(-c2ccc(C(=O)N3CCC(N4CCOCC4)CC3)cc2)cnc2[nH]cc(Cl)c12` [Compound 96, (4-(3-chloro-4-(methylamino)-1H-pyrrolo[2,3-b]pyridin-5-yl)phenyl)(4-morpholinopiperidin-1-yl)methanone], the remaining binding at 1 µM in test [1] came out at 81%; in test [2], 7.8%; in test [3] it was 62%; in test [4], 100%; in test [5] it was 4.2%; in test [6] it was 63%. Besides, the remaining binding at 1 µM was determined as 100% in test [7], 82% in test [8] and 38% in test [9].
Take `O=C(c1ccc(-c2cnc3[nH]cc(Cl)c3c2NC2CCCC2)cc1)N1CCC(N2CCOCC2)CC1` [Compound 101, (4-(3-chloro-4-(cyclopentylamino)-1H-pyrrolo[2,3-b]pyridin-5-yl)phenyl)(4-morpholinopiperidin-1-yl)methanone]: the remaining binding at 1 µM in test [1] is 100%; in [2] it was 62%; in [3], 100%; in test [4], 96%; in [5] it was 33%; in test [6], 77%. The remaining binding at 1 µM was 100% in test [7], 88% in test [8] and 82% in test [9].
For `CNc1c(-c2cnn([C@H]3CCN(C(C)=O)C[C@@H]3F)c2)cnc2[nH]cc(Cl)c12` [Compound 77, 1-((3S,4S)-4-(4-(3-chloro-4-(methylamino)-1H-pyrrolo[2,3-b]pyridin-5-yl)-1H-pyrazol-1-yl)-3-fluoropiperidin-1-yl)ethan-1-one], the remaining binding at 1 µM in [1] is 100%; in test [2], 8.2%; in test [3], 26%; in [4] it was 100%; in test [5], 36%; in test [6], 93%. The remaining binding at 1 µM in test [7] stood at 100%; in test [8], 79%; in [9], 36%.
